As a reminder, the GI50 is the concentration at which growth is held to half of that of the control.

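Where inhibition never reached the appropriate level, the endpoint shown equals the highest concentration tested. Otherwise, values were interpolated linearly from a five-concentration, 48-hour dose response in 96-well plates. The concentration for 50% growth inhibition is given as GI50.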 Activity calls are given as the source filed them. Rule as the data show it: active = GI50 up to about 1.1 µM and inactive = higher.

From ChEMBL document CHEMBL1201862, “PubChem BioAssay data set” (2004) come the findings set out here.

Some test systems named below: ACHN; UO-31; DU-145; SF-268; MCF7; Hs-578T; LOX IMVI; OVCAR-5; EKVX; CCRF-CEM; OVCAR-8; SF-539; KM12; SK-MEL-2; SNB-19; UACC-257; NCI-H522; K562; HL-60.
What all share (experiment): DTP human tumour cell line panel, 48 h

As for `COc1ccc(CN(CCc2c[nH]c3ccccc23)Cc2ccc(OC)cc2)cc1`, the GI50 in the test with ACHN was 3.37 µM (inactive); in the test with UO-31, 1.47 µM (inactive); with DU-145, 4.65 µM (inactive); in the test on SF-268 it was 4.39 µM (inactive); in the test with MCF7 it was 3.47 µM (inactive); with Hs-578T it was 16.7 µM (inactive). The GI50 in the test with LOX IMVI was 3.15 µM (inactive); in the test on OVCAR-5, 3.64 µM (inactive); with EKVX, 5.26 µM (inactive); in the test on CCRF-CEM, 6.67 µM (inactive); with OVCAR-8 it was 3.95 µM (inactive); in the test with SF-539, 1.56 µM (inactive). For the same molecule, the GI50 in the test on KM12 was 2.67 µM (inactive); in the test with SK-MEL-2 it was 3.9 µM (inactive); in the test with SNB-19 it was 5.13 µM (inactive); in the test on UACC-257, 3.8 µM (inactive); in the test on NCI-H522, 2.88 µM (inactive); in the test with K562, 4.75 µM (inactive).

`COc1cc(O)ccc1C(=S)SC`: the GI50 with ACHN is 68.2 µM (inactive); in the test with UO-31, 51.6 µM (inactive); in the test with DU-145, > 100 µM (inactive); with SF-268, 67.1 µM (inactive); in the test on HL-60, 23.6 µM (inactive); in the test on MCF7, > 100 µM (inactive). Also, the GI50 in the test on Hs-578T is 24.1 µM (inactive); in the test with OVCAR-5, > 100 µM (inactive); with EKVX, 11.4 µM (inactive); with OVCAR-8, 58.7 µM (inactive); in the test with SF-539, 76.2 µM (inactive); in the test on KM12 it was 69.7 µM (inactive). Besides, the GI50 was > 100 µM (inactive) in the test on SK-MEL-2; 78.2 µM (inactive) in the test on SNB-19; 51.5 µM (inactive) with UACC-257; 46 µM (inactive) in the test with NCI-H522; 52.8 µM (inactive) in the test with K562.

Turning to `CN(C)CCNC(=O)c1cccc(NC(=O)c2ccccc2)c1[N+](=O)[O-]`, the GI50 in the test with ACHN is > 100 µM (inactive); in the test with UO-31, > 100 µM (inactive); in the test on DU-145, > 10 µM (inactive); in the test on SF-268, > 100 µM (inactive); in the test on HL-60, > 100 µM (inactive); in the test with MCF7, > 100 µM (inactive). For the same molecule, the GI50 in the test on Hs-578T, in the test with OVCAR-5, with CCRF-CEM, with OVCAR-8, in the test on KM12 and with SK-MEL-2 was > 100 µM (inactive) throughout. Besides, the GI50 in the test on SNB-19, with UACC-257 and in the test with NCI-H522 was > 100 µM (inactive) throughout.

As to `CC(=O)SSC1(Cl)C(C)(C)C(Cl)(SSC(C)=O)C1(C)C` (stereo not drawn), the GI50 in the test on ACHN is 63.4 µM (inactive); in the test with UO-31 it was 94.8 µM (inactive); in the test with DU-145, 29.6 µM (inactive); in the test with SF-268, 43.6 µM (inactive); in the test with MCF7, 33.6 µM (inactive); with Hs-578T, > 100 µM (inactive). The GI50 is 33.3 µM (inactive) in the test with LOX IMVI; > 100 µM (inactive) in the test on OVCAR-5; 39.9 µM (inactive) in the test on EKVX; 24 µM (inactive) with CCRF-CEM; 39.4 µM (inactive) in the test on OVCAR-8; 24.5 µM (inactive) with SF-539. Besides, the GI50 is 39.4 µM (inactive) with KM12; > 100 µM (inactive) with SK-MEL-2; 35 µM (inactive) in the test on SNB-19; 41.3 µM (inactive) in the test with UACC-257; 38.8 µM (inactive) with NCI-H522.

Consider `CCOC(=O)/C=C/[C@H](O[Si](CC)(CC)CC)C(C)(C)C`, for which the GI50 in the test with ACHN is 28.7 µM (inactive); in the test with UO-31 it was > 100 µM (inactive); in the test with DU-145, > 100 µM (inactive); in the test on SF-268, > 100 µM (inactive); in the test on MCF7, 25.8 µM (inactive); with Hs-578T, > 100 µM (inactive). Moreover, the GI50 with LOX IMVI is 21.5 µM (inactive); in the test on OVCAR-5 it was 89.9 µM (inactive); with EKVX, 40.5 µM (inactive); with CCRF-CEM, 22.4 µM (inactive); in the test on OVCAR-8, > 100 µM (inactive); with SF-539, > 100 µM (inactive). Moreover, the GI50 with KM12 is > 100 µM (inactive); with SK-MEL-2, 23.2 µM (inactive); in the test with SNB-19, 36.3 µM (inactive); in the test with UACC-257 it was 31 µM (inactive); with NCI-H522, 29.1 µM (inactive); in the test on K562, 65.8 µM (inactive).

On to `C[C@]12CCC3c4ccc(O)cc4CC[C@H]3C1CC(=O)N(N)C2=O` (stereo partly drawn), for which the GI50 with ACHN, with UO-31, in the test with DU-145, in the test on SF-268, in the test on HL-60 and in the test on MCF7 was > 100 µM (inactive) in each case. Moreover, the GI50 in the test on Hs-578T is > 100 µM (inactive); in the test on OVCAR-5, > 100 µM (inactive); with EKVX, 64.7 µM (inactive); in the test with CCRF-CEM, > 100 µM (inactive); in the test on OVCAR-8, > 100 µM (inactive); in the test with SF-539, > 100 µM (inactive). The GI50 with KM12, with SNB-19, with UACC-257, in the test with NCI-H522 and with K562 was > 100 µM (inactive) each time.

For `Oc1c(Cl)c(Cl)c(O)c(-c2cnc(-c3ncc(-c4c(O)c(Cl)c(Cl)c(O)c4Cl)s3)s2)c1Cl`, the GI50 in the test with ACHN was 23.3 µM (inactive); in the test with UO-31, 21.1 µM (inactive); in the test on DU-145, 49.8 µM (inactive); in the test with SF-268, 22 µM (inactive); in the test with HL-60, 33.3 µM (inactive); with MCF7 it was 18.2 µM (inactive). Besides, the GI50 is 15.2 µM (inactive) in the test with Hs-578T; 15.5 µM (inactive) in the test on OVCAR-5; 21.2 µM (inactive) in the test on EKVX; 8.53 µM (inactive) in the test with CCRF-CEM; 16.7 µM (inactive) in the test on OVCAR-8; 24.3 µM (inactive) in the test with SF-539. Moreover, the GI50 in the test with KM12 is 29.2 µM (inactive); in the test on SK-MEL-2, 18.4 µM (inactive); with SNB-19, 27.9 µM (inactive); in the test on UACC-257 it was 29 µM (inactive); in the test with NCI-H522, 2.1 µM (inactive); in the test on K562 it was 34.1 µM (inactive).

Regarding `CC(C)C1CNC(=O)C2(/C=N/C(C(C)C)CNC(=O)C3(/C=N/1)CCCO3)CCCO2` (stereo not drawn), the GI50 in the test with ACHN, in the test with DU-145, with SF-268, in the test with HL-60, with MCF7 and in the test on Hs-578T was > 10 µM (inactive) each time. For the same molecule, the GI50 in the test with EKVX, in the test with CCRF-CEM, with OVCAR-8, in the test with SF-539, in the test with KM12 and in the test with SNB-19 was > 10 µM (inactive) throughout. The GI50 in the test with UACC-257, in the test with NCI-H522 and in the test with K562 was > 10 µM (inactive) throughout.

Take `COc1ccc(N2C(=O)/C(=C/c3ccc(N(CCC#N)CCC#N)cc3)N=C2c2ccccc2)cc1`: the GI50 in the test on ACHN, in the test with UO-31, in the test on DU-145, with SF-268, in the test with HL-60 and in the test on MCF7 was > 100 µM (inactive) throughout. Also, the GI50 in the test with Hs-578T, with LOX IMVI, in the test on OVCAR-5, in the test with EKVX, with OVCAR-8 and in the test on SF-539 was > 100 µM (inactive) in each case. The GI50 with KM12, in the test with SK-MEL-2, with SNB-19, with UACC-257 and in the test with K562 was > 100 µM (inactive) throughout.

For `CC(NC(NC(C)C12CC3CC(CC(C3)C1)C2)=C(C(Cl)=C(Cl)Cl)[N+](=O)[O-])C12CC3CC(CC(C3)C1)C2` (stereo not drawn), the GI50 in the test with ACHN is 28.2 µM (inactive); in the test on UO-31, 31.9 µM (inactive); in the test on DU-145, 45 µM (inactive); in the test on SF-268, 21.8 µM (inactive); in the test on MCF7, 8.36 µM (inactive); in the test with Hs-578T it was 3.83 µM (inactive). Also, the GI50 in the test on LOX IMVI is 9.95 µM (inactive); in the test on OVCAR-5, 32.1 µM (inactive); in the test with EKVX, 11.3 µM (inactive); with CCRF-CEM it was 0.923 µM (active); in the test with OVCAR-8, 2.77 µM (inactive); in the test with SF-539, 20.9 µM (inactive). Further, the GI50 in the test on KM12 is 47.3 µM (inactive); with SK-MEL-2, 15 µM (inactive); with SNB-19, 30.2 µM (inactive); with UACC-257, 14.5 µM (inactive); with NCI-H522 it was 7.11 µM (inactive); in the test with K562, 9.08 µM (inactive).

On to `C/C(=N\c1cccc(Cl)c1)c1ccncc1`, for which the GI50 in the test on ACHN was > 100 µM (inactive); in the test with UO-31, > 100 µM (inactive); in the test on DU-145, > 100 µM (inactive); in the test with SF-268, 14.6 µM (inactive); in the test with MCF7, > 100 µM (inactive); in the test with Hs-578T, > 100 µM (inactive). The GI50 with LOX IMVI, in the test on OVCAR-5, in the test on EKVX, in the test with CCRF-CEM, with OVCAR-8 and in the test on SF-539 was > 100 µM (inactive) each time. Further, the GI50 with KM12 is > 100 µM (inactive); in the test on SK-MEL-2 it was > 100 µM (inactive); with SNB-19 it was > 100 µM (inactive); with UACC-257, > 10 µM (inactive); in the test with NCI-H522, > 100 µM (inactive); in the test on K562 it was > 100 µM (inactive).
